Here are results for eleven molecules from patent publication US20210171554A1, “BENZOTHIOPHENE ESTROGEN RECEPTOR MODULATORS TO TREAT MEDICAL DISORDERS” (G1 Therapeutics, Inc., priority 2018, published 2021).

The target in assay [1] is T1, estrogen receptor (Homo sapiens, UniProt P03372).
T1 construct: MCF7 cells, which are estrogen receptor positive; endogenous in cells; host or cells: MCF7
T1 sequence (P03372 1-595): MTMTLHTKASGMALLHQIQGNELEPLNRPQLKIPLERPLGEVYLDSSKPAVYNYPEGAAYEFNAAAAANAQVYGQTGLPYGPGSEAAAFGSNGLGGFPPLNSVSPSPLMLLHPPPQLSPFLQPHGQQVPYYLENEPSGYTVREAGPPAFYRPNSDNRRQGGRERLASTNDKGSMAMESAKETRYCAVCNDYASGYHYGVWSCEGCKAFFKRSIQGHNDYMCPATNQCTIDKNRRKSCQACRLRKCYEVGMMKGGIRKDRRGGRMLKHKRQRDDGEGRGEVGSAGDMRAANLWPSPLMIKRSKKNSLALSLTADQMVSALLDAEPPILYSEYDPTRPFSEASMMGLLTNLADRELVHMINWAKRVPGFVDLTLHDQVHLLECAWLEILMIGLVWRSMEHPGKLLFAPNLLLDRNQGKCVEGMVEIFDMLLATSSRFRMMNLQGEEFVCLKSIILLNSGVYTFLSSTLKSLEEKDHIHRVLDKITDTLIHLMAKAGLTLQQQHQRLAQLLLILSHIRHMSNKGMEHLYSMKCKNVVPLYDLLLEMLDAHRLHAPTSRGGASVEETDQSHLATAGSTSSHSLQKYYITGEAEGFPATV
Nature of the assay: Estrogen Receptor (ER) Degradation Assay (In-Cell Western, MCF7 cells). It counts as cell-based. More on the design: key to % Estrogen Receptor Remaining: **** denotes 0-0% Estrogen Receptor remaining; *** denotes 417% Estrogen Receptor remaining; ** denotes 719% Estrogen Receptor remaining; * denotes 9110% Estrogen Receptor remaining. The settings on record: for DC50: 24 hours incubation, In-Cell Western, read-out: Estrogen Receptor Degradation Assay IC50; for % Estrogen Receptor Remaining: vehicle set to 100% ER. The method, then: A screening strategy was implemented utilizing an In-Cell Western assay to measure their ability to degrade the estrogen receptor in vitro. MCF7 cells, which are estrogen receptor positive, were plated at a cell density of […] into black walled clear bottom 96-well plates. Cells were incubated in phenol red free Dulbecco's Modified Eagle Media (DMEM) supplemented with 8% charcoal-stripped fetal bovine calf serum for 24 hours in a humidified 37° C. incubator. Concentrated stock compounds were diluted to 10× in complete media. Compounds were added to the plated cells in a dose-dependent manner ranging from 1E-12 to 1E-05 M and incubated for an additional 24 hours at 37° C. Culture medium was removed from the culture plates by gentle inversion. Cells were fixed in 4% paraformaldehyde in 1×phosphate buffered saline-calcium magnesium free (PBS-CMF) for 15 minutes at room temperature, washed 3 times for 5 minutes each in 1×PBS-CMF. Cells were permeabilized in immunofluorescence (IF) blocking buffer (Cell Signaling #12411) containing 0.3% Triton X100. Cells were washed 3 times for 5 minutes each in 1×PBS-CMF and incubated in estrogen receptor α (D6R2W) rabbit primary antibody (Cell Signaling #13258) diluted 1:300 in IF antibody dilution buffer (Cell Signaling #12378). Cells were washed 3 times for 5 minutes each in 1×PBS-CMF and stained with goat anti-rabbit (Biotium #CF770) secondary antibody diluted 1:2000 in IF antibody dilution buffer and normalizing stain CellTag 700 diluted 1:500 (Licor #926-41090). ER protein expression was assessed by the Licor Odyssey CLx imaging system using Image Studio v5.2. Data is processed utilizing GraphPad Prism 7 by subtracting background from the vehicle and setting the vehicle to 100% ER activity, followed by comparing treated samples to vehicle.
(§1) In the below table for the Estrogen Receptor Degradation Assay and the Human ERα Reporter Assay: […]

The target in assay [2] is T2, human estrogen receptor (ERα) (Homo sapiens, UniProt P03372).
T2 construct: purchased Indigo Biosciences #1B00401
T2 sequence (P03372 1-595): T1 sequence (P03372 1-595)
Nature of the assay: Human ERα Reporter Assay (Indigo Biosciences, antagonist mode). It counts as cell-based. The following applies: antagonist activity, reporter cells with 17β-estradiol 8E-10 M, 24 hours. The protocol:
All reagents used in this assay was supplied in the Human ERα Reporter Assay by Indigo Biosciences #1B00401. In an effort to screen selective estrogen receptor degraders (SERDs), the Human ERα Reporter Assay, supplied by Indigo Biosciences, was utilized to quantify antagonist functional activity against the human estrogen receptor. Reporter cells were thawed at 37° C. and added to pre-warmed to 37° C. cell recovery medium (CRM). Stock concentration of 17β-estradiol was serially diluted in CRM. Diluted 17β-estradiol was added to CRM containing reporter cells resulting in a working concentration of 1.6 nM (2×). Cells plus 17β-estradiol were dispensed in a kit-supplied white walled 96-well plate. Concentrated stocks of test compounds were diluted to 2× working concentrations in cell screening medium (CSM). 2× concentrated compounds were added to the plated cells in a dose-dependent manner resulting in a final concentration range of 1E-11 to 1E-5 M and a final […] concentration of 8E-10 M. Assay plates were incubated for 24 hours in a humidified 37° C. incubator. Culture medium was removed from the assay plates by inversion. Detection substrate and buffer was warmed to room temperature, mixed thoroughly, and immediately added to the assay plates. Assay plates were incubated for 15 minutes at room temperature protected from light. Luminescence was measured in a Synergy HTX luminescence plate reader. Data is processed utilizing GraphPad Prism 7 by graphing the relative light units measured at each compound concentration.
as §1
For orientation: In a reporter assay the amount or activity of a reporter protein is the signal.

The structures appear in SMILES notation.

Broadly, the IC50 is the midpoint of a concentration-inhibition curve. With `Cc1cc(F)cc(C)c1C(=O)c1sc2c(F)c(O)ccc2c1Oc1ccc(OC2CCN(CCCF)C2)cc1` (stereo in doubt) [Compound 112, (R)-(4-fluoro-2,6-dimethylphenyl)(7-fluoro-3-(4-((1-(3-fluoropropyl)pyrrolidin-3-yl)oxy)phenoxy)-6-hydroxybenzo[b]thiophen-2-yl)methanone], in assay [1], the DC50 was below 1000 nM and the “% Estrogen Receptor Remaining” value was “**** (**** denotes 0-0% Estrogen Receptor remaining)”. Also, the IC50 in assay [2] is below 1000 nM.

In the case of `Cc1cc(F)cc(C)c1C(=O)c1sc2cc(O)c(F)cc2c1Oc1ccc(OC2CCN(CCCF)C2)cc1` (stereo in doubt) [Compound 113, (R)-(4-fluoro-2,6-dimethylphenyl)(5-fluoro-3-(4-((1-(3-fluoropropyl)pyrrolidin-3-yl)oxy)phenoxy)-6-hydroxybenzo[b]thiophen-2-yl)methanone], in assay [1], the DC50 was below 1000 nM and the “% Estrogen Receptor Remaining” value is on record as “**** (**** denotes 0-0% Estrogen Receptor remaining)”. Moreover, in assay [2], the IC50 was below 1000 nM.

As for `Cc1cc(F)cc(C)c1C(=O)c1sc2cc(O)ccc2c1Oc1ccc(O[C@H]2CCN(CCCF)C2)cc1` [Compound 100, (S)-(4-fluoro-2,6-dimethylphenyl)(3-(4-((1-(3-fluoropropyl)pyrrolidin-3-yl)oxy)phenoxy)-6-hydroxybenzo[b]thiophen-2-yl)methanone], in assay [1], the DC50 was below 1000 nM and the “% Estrogen Receptor Remaining” value is recorded as “**** (**** denotes 0-0% Estrogen Receptor remaining)”. The IC50 in assay [2] was below 1000 nM.

On to `Cc1cc(F)cc(C)c1C(=O)c1sc2cc(O)ccc2c1Oc1ccc(O[C@H]2CCNC2)cc1` [Compound 101, (S)-(4-fluoro-2,6-dimethylphenyl)(6-hydroxy-3-(4-(pyrrolidin-3-yloxy)phenoxy)benzo[b]thiophen-2-yl)methanone], for which, in assay [1], the DC50 is below 1000 nM and the “% Estrogen Receptor Remaining” value is “***”. For the same molecule, in assay [2], the half-inhibitory concentration (IC50) is below 1000 nM.

`Cc1cc(F)cc(C)c1C(=O)c1sc2cc(O)ccc2c1Oc1ccc(O[C@@H]2CCN(CCCF)C2)cc1` [Compound 102, (R)-(4-fluoro-2,6-dimethylphenyl)(3-(4-((1-(3-fluoropropyl)pyrrolidin-3-yl)oxy)phenoxy)-6-hydroxybenzo[b]thiophen-2-yl)methanone]: in assay [1], the DC50 is below 1000 nM and the “% Estrogen Receptor Remaining” value is “**** (**** denotes 0-0% Estrogen Receptor remaining)”. For the same molecule, in assay [2], the IC50 was below 1000 nM.

Regarding `CCNCCc1ccc(Oc2c(C(=O)c3c(C)cc(F)cc3C)sc3cc(C(=O)O)ccc23)cc1` [Compound 106, 3-(4-(2-(ethylamino)ethyl)phenoxy)-2-(4-fluoro-2,6-dimethylbenzoyl)benzo[b]thiophene-6-carboxylic acid], in assay [1], the DC50 was below 1000 nM and the “% Estrogen Receptor Remaining” value is on record as “***”. For the same molecule, the 50% inhibitory concentration (IC50) in assay [2] was below 1000 nM.

In the case of `Cc1cc(F)cc(C)c1C(=O)c1sc2cc(O)ccc2c1-c1ccc(O[C@H]2CCN(CCCF)C2)cc1` [Compound 108, (S)-(4-fluoro-2,6-dimethylphenyl)(3-(4-((1-(3-fluoropropyl)pyrrolidin-3-yl)oxy)phenyl)-6-hydroxybenzo[b]thiophen-2-yl)methanone], in assay [1], the DC50 is below 1000 nM and the “% Estrogen Receptor Remaining” value is on record as “**”. In addition, the IC50 in assay [2] is below 50000 nM.

With `Cc1cc(F)cc(C)c1C(=O)c1sc2cc(O)ccc2c1-c1ccc(OCCN2CCCC2)cc1` [Compound 109, (4-fluoro-2,6-dimethylphenyl)(6-hydroxy-3-(4-(2-(pyrrolidin-1-yl)ethoxy)phenyl)benzo[b]thiophen-2-yl)methanone], in assay [1], the DC50 is below 1000 nM and the “% Estrogen Receptor Remaining” value was “***”. Also, the IC50 in assay [2] was below 1000 nM.

Turning to `Cc1cc(F)cc(C)c1C(=O)c1sc2cc(O)ccc2c1-c1ccc(O[C@@H]2CCN(CCCF)C2)cc1` [Compound 110, (R)-(4-fluoro-2,6-dimethylphenyl)(3-(4-((1-(3-fluoropropyl)pyrrolidin-3-yl)oxy)phenyl)-6-hydroxybenzo[b]thiophen-2-yl)methanone], in assay [1], the DC50 is below 1000 nM and the “% Estrogen Receptor Remaining” value is “***”. Also, the IC50 in assay [2] was below 1000 nM.

On to `Cc1cc(F)cc(C)c1C(=O)c1sc2cc(O)ccc2c1Oc1ccc(OCCN2CCC(CCCF)C2)cc1` (stereo not shown) [Compound 115, (4-fluoro-2,6-dimethylphenyl)(3-(4-(2-(3-(3-fluoropropyl)pyrrolidin-1-yl)ethoxy)phenoxy)-6-hydroxybenzo[b]thiophen-2-yl)methanone], for which, in assay [1], the DC50 was below 1000 nM and the “% Estrogen Receptor Remaining” value is given as “**”.

Regarding `Cc1cc(F)cc(C)c1C(=O)c1sc2cc(S(N)(=O)=O)ccc2c1Oc1ccc(O[C@H]2CCN(CCCF)C2)cc1` [Compound 116, (S)-2-(4-fluoro-2,6-dimethylbenzoyl)-3-(4-((1-(3-fluoropropyl)pyrrolidin-3-yl)oxy)phenoxy)benzo[b]thiophene-6-sulfonamide], in assay [1], the DC50 is below 1000 nM and the “% Estrogen Receptor Remaining” value was “**** (**** denotes 0-0% Estrogen Receptor remaining)”.
